Source: ChEMBL document CHEMBL1122759, “6-Hydroxy-4-[2-(di-n-propylamino)ethyl]indole: synthesis and dopaminergic actions” (1984)
The source made the active and inactive calls. The calls are words filed in the database; no cut-off is given here.

Tests used:
[1] = system: Felis catus; test: Compound tested in vivo for sympathetic neuronal activity in cat cardioaccelerator nerve after iv administration; type: functional; settings: Sympathetic neuron
[2] = biological target: T1, Dopamine receptor (Homo sapiens) (UniProt P14416+P35462+P21918+P21917+P21728); test: […] inhibitory activity against dopamine receptor in isolated cat atria; active; settings: Felis catus; target entry is the homologue from another species
[3] = system: Felis catus; test: Compound tested in vivo for sympathetic neuronal activity in cat cardioaccelerator nerve after intraduodenal administration; type: functional; settings: Sympathetic neuron
[4] = system: Felis catus; test: Compound tested in vitro for sympathetic neuronal activity in cat atria […]; type: functional; settings: Sympathetic neuron, read-out: ED50 (the source's name)
[5] = system: Felis catus; test: Compound tested in vitro for sympathetic neuronal activity in cat atria […]; no inhibition with concentrations uM; type: functional; settings: Sympathetic neuron
[6] = biological target: T1, Dopamine receptor (Homo sapiens); test: […] inhibitory activity against dopamine receptor in isolated cat atria; inactive; settings: Felis catus; target entry is the homologue from another species

Row | SMILES | ED50 [1] | Activity [2] | ED50 [3] | EC50 [4] | ED50 [5] | Activity [6]
1 | CN1C[C@H](CC#N)C[C@@H]2c3cccc4[nH]c(Cl)c(c34)C[C@H]21 [LERGOTRILE] | 0.27 µmol/kg |  |  |  |  | 
2 | CCCN(CCC)CCc1cc(O)cc2[nH]ccc12 | 0.019 µmol/kg | Active | 0.047 µmol/kg | 27 nM |  | 
3 | CCCN(CCC)CCc1cccc2[nH]ccc12 | 0.22 µmol/kg |  |  |  | inactive | inactive
